Test results taken from ChEMBL document CHEMBL3045147, “Synthesis and evaluation of a series of novel imidazolidinone analogues of 6-aminoflavone as anticancer and anti-inflammatory agents” (Med Chem Res, 2013).
In brackets after ≈: the same amount, converted by molar mass. Activity calls are given as the source filed them. No cut-off for these calls is given here.

How the values were obtained:
HeLa [1] = test: Cytotoxicity against Homo sapiens (human) HeLa cells assessed as inhibition of cell viability by MTT assay; format: functional, cell-based
MDA-MB-435 [2] = test: Cytotoxicity against Homo sapiens (human) MDA-MB-435 cells assessed as inhibition of cell viability by SRB assay; format: functional, cell-based
Rattus norvegicus [3] = test: Anti-inflammatory activity in Wistar Rattus norvegicus (rat) assessed as inhibition of carrageenan-induced paw edema at 100 mg/kg/day, po measured after 3 hr; format: functional
HeLa [4] = test: Cytotoxicity against Homo sapiens (human) HeLa cells assessed as inhibition of cell viability by SRB assay; format: functional, cell-based
MDA-MB-435 [5] = test: Cytotoxicity against Homo sapiens (human) MDA-MB-435 cells assessed as inhibition of cell viability by MTT assay; format: functional, cell-based
Rattus norvegicus [6] = test: Anti-inflammatory activity in Wistar Rattus norvegicus (rat) assessed as inhibition of carrageenan-induced paw edema at 50 mg/kg, po measured after 3 hr; format: functional
[7] = Anticancer activity against Mus musculus (mouse) EAC cells xenografted in albino mouse assessed as increase in mean life span at 50 mg/kg/day administered for 9 days; format: functional, Ehrlich
[8] = Anticancer activity against Mus musculus (mouse) EAC cells xenografted in albino mouse assessed as mean survival time at 100 mg/kg/day administered for 9 days (reference value: 17.33 +/-0.21 days); format: functional, Ehrlich
HeLa [9] = test: Cell cycle arrest in Homo sapiens (human) HeLa cells assessed as accumulation of cells at S phase after 48 hr by FACS analysis (reference value: 6.34%); format: functional
[10] = Anticancer activity against Mus musculus (mouse) EAC cells xenografted in albino mouse assessed as increase in body weight at 100 mg/kg/day administered for 9 days measured on day 15 (reference value: 58.81 +/-2.67%); format: functional, Ehrlich
Ehrlich = test: Anticancer activity against Mus musculus (mouse) EAC cells xenografted in albino mouse assessed as decrease in ascites fluid volume at 50 to 100 mg/kg/day administered for 9 days; format: functional, organism-based
[11] = Anticancer activity against Mus musculus (mouse) EAC cells xenografted in albino mouse assessed as median survival time at 50 mg/kg/day administered for 9 days (reference value: 17 days); format: functional, Ehrlich
[12] = Anticancer activity against Mus musculus (mouse) EAC cells xenografted in albino mouse assessed as mean survival time at 50 mg/kg/day administered for 9 days (reference value: 17.33 +/-0.21 days); format: functional, Ehrlich
HeLa [13] = test: Cell cycle arrest in Homo sapiens (human) HeLa cells assessed as accumulation of cells at Sub-G0 phase after 48 hr by FACS analysis (reference value: 1.15%); format: functional
[14] = Anticancer activity against Mus musculus (mouse) EAC cells xenografted in albino mouse assessed as increase in body weight at 100 mg/kg/day administered for 9 days measured on day 6 (reference value: 16.31 +/-0.48%); format: functional, Ehrlich
[15] = Anticancer activity against Mus musculus (mouse) EAC cells xenografted in albino mouse assessed as increase in body weight at 100 mg/kg/day administered for 9 days measured on day 9 (reference value: 34.31 +/-1.06%); format: functional, Ehrlich
[16] = Anticancer activity against Mus musculus (mouse) EAC cells xenografted in albino mouse assessed as increase in median life span at 100 mg/kg/day administered for 9 days; format: functional, Ehrlich
[17] = Anticancer activity against Mus musculus (mouse) EAC cells xenografted in albino mouse assessed as increase in body weight at 100 mg/kg/day administered for 9 days measured on day 3 (reference value: 4.56 +/-0.52%); format: functional, Ehrlich
[18] = Anticancer activity against Mus musculus (mouse) EAC cells xenografted in albino mouse assessed as increase in mean life span at 100 mg/kg/day administered for 9 days; format: functional, Ehrlich
[19] = Anticancer activity against Mus musculus (mouse) EAC cells xenografted in albino mouse assessed as median survival time at 100 mg/kg/day administered for 9 days (reference value: 17 days); format: functional, Ehrlich
[20] = Anticancer activity against Mus musculus (mouse) EAC cells xenografted in albino mouse assessed as increase in body weight at 100 mg/kg/day administered for 9 days measured on day 12 (reference value: 44.42 +/-2.82%); format: functional, Ehrlich
HeLa [21] = test: Cell cycle arrest in Homo sapiens (human) HeLa cells assessed as accumulation of cells at G0/G1 phase after 48 hr by FACS analysis (reference value: 74.27%); format: functional
MDA-MB-435 [22] = test: Ratio of 6-aminoflavone IC50 to compound IC50 for Homo sapiens (human) MDA-MB-435 cells; format: functional
[23] = Anticancer activity against Mus musculus (mouse) EAC cells xenografted in albino mouse assessed as increase in median life span at 50 mg/kg/day administered for 9 days; format: functional, Ehrlich
HeLa [24] = test: Ratio of 6-aminoflavone IC50 to compound IC50 for Homo sapiens (human) HeLa cells; format: functional
HeLa [25] = test: Cytotoxicity against Homo sapiens (human) HeLa cells assessed as morphological changes after 24 hr by microscopic analysis; format: functional, cell-based
HeLa [26] = test: Cell cycle arrest in Homo sapiens (human) HeLa cells assessed as accumulation of cells at G2/M phase after 48 hr by FACS analysis (reference value: 18.65%); format: functional

Structure (SMILES): O=C1/C(=C\c2ccccc2)N=C(c2ccccc2)N1c1ccc2oc(-c3ccccc3)cc(=O)c2c1
- IC50 (HeLa [1]): 20.1 µg/mL (≈ 42.9 µM)
- IC50 (MDA-MB-435 [2]): 26.4 µg/mL (≈ 56.3 µM)
- inhibition in vivo at 100 mg/kg/day (Rattus norvegicus [3]): 38.2%
- IC50 (HeLa [4]): 20.9 µg/mL (≈ 44.6 µM)
- IC50 (MDA-MB-435 [5]): 24.3 µg/mL (≈ 51.8 µM)

Structure (SMILES): O=C1/C(=C\c2ccc(O)cc2)N=C(c2ccccc2)N1c1ccc2oc(-c3ccccc3)cc(=O)c2c1
- IC50 (HeLa [1]): 16.4 µg/mL (≈ 33.8 µM)
- IC50 (MDA-MB-435 [2]): 21.4 µg/mL (≈ 44.1 µM)
- inhibition in vivo at 100 mg/kg/day (Rattus norvegicus [3]): 47.6%
- IC50 (HeLa [4]): 18.9 µg/mL (≈ 39 µM)
- IC50 (MDA-MB-435 [5]): 18 µg/mL (≈ 37.2 µM)

Structure (SMILES): CC(C)Cc1ccc(C(C)C(=O)O)cc1 (stereo not drawn) [IBUPROFEN]
- inhibition in vivo at 50 mg/kg (Rattus norvegicus [6]): 67.1%

Structure (SMILES): COc1ccc(/C=C2/N=C(c3ccccc3)N(c3ccc4oc(-c5ccccc5)cc(=O)c4c3)C2=O)cc1OC
- Activity [7]: 28.87%
- IC50 (HeLa [1]): 9.87 µg/mL (≈ 18.7 µM)
- MST [8]: 23 days
- Activity (HeLa [9]): 14.1%
- Activity [10]: 19.99%
- inhibition (Ehrlich): Active
- MST [11]: 22.5 days
- MST [12]: 22.33 days
- IC50 (MDA-MB-435 [2]): 11.9 µg/mL (≈ 22.6 µM)
- Activity (HeLa [13]): 21.63%
- Activity [14]: 9.39%
- Activity [15]: 13.63%
- Activity [16]: 35.29%
- Activity [17]: 3.58%
- Activity [18]: 32.72%
- inhibition in vivo at 100 mg/kg/day (Rattus norvegicus [3]): 49.8%
- MST [19]: 23 days
- Activity [20]: 17.47%
- Activity (HeLa [21]): 36.8%
- IC50 (HeLa [4]): 11.1 µg/mL (≈ 21 µM)
- Ratio IC50 (MDA-MB-435 [22]): 5
- Activity [23]: 32.35%
- Ratio IC50 (HeLa [24]): 5
- IC50 (MDA-MB-435 [5]): 10.8 µg/mL (≈ 20.4 µM)
- Activity (HeLa [25]): Active
- Activity (HeLa [26]): 28.37%

Structure (SMILES): COc1ccc(/C=C2/N=C(c3ccccc3)N(c3ccc4oc(-c5ccccc5)cc(=O)c4c3)C2=O)cc1
- IC50 (HeLa [1]): 14.2 µg/mL (≈ 28.6 µM)
- IC50 (MDA-MB-435 [2]): 21.7 µg/mL (≈ 43.6 µM)
- inhibition in vivo at 100 mg/kg/day (Rattus norvegicus [3]): 45.1%
- IC50 (HeLa [4]): 17.6 µg/mL (≈ 35.3 µM)
- IC50 (MDA-MB-435 [5]): 18.5 µg/mL (≈ 37.1 µM)

Structure (SMILES): COc1cccc2c1C(=O)c1c(O)c3c(c(O)c1C2=O)C[C@@](O)(C(=O)CO)C[C@@H]3O[C@H]1C[C@H](N)[C@H](O)[C@H](C)O1.Cl [DOXORUBICIN HYDROCHLORIDE]
- Activity (HeLa [9]): 4.01%
- IC50 (MDA-MB-435 [2]): 0.93 µg/mL
- Activity (HeLa [13]): 2.22%
- Activity (HeLa [21]): 16.62%
- IC50 (MDA-MB-435 [5]): 0.77 µg/mL
- Activity (HeLa [26]): 76.76%

Structure (SMILES): Nc1ccc2oc(-c3ccccc3)cc(=O)c2c1 [6-AMINOFLAVONE]
- IC50 (HeLa [1]): 55.8 µg/mL (≈ 235 µM)
- IC50 (MDA-MB-435 [2]): 78.4 µg/mL (≈ 330 µM)
- inhibition in vivo at 100 mg/kg/day (Rattus norvegicus [3]): 24.2%
- IC50 (HeLa [4]): 63.6 µg/mL (≈ 268 µM)
- IC50 (MDA-MB-435 [5]): 59.5 µg/mL (≈ 251 µM)

Structure (SMILES): O=C1/C(=C\c2ccc(Cl)c(Cl)c2)N=C(c2ccccc2)N1c1ccc2oc(-c3ccccc3)cc(=O)c2c1
- IC50 (HeLa [1]): 15.2 µg/mL (≈ 28.3 µM)
- IC50 (MDA-MB-435 [2]): 20.1 µg/mL (≈ 37.5 µM)
- inhibition in vivo at 100 mg/kg/day (Rattus norvegicus [3]): 36.5%
- IC50 (HeLa [4]): 16 µg/mL (≈ 29.7 µM)
- IC50 (MDA-MB-435 [5]): 16.9 µg/mL (≈ 31.4 µM)
